Assay results published in the supplement of paper PMC12076712.

Columns and labels:
[1] = biological target: AKT2 (UniProt P31751); test: pIC50, kinobeads binding competition; conditions: cell material: Jurkat lysate
[2] = biological target: CIT (UniProt O14578); test: pIC50, kinobeads binding competition; conditions: cell material: Jurkat lysate
[3] = biological target: T1, KSR1 (UniProt Q8IVT5); test: pIC50, kinobeads binding competition; conditions: cell material: Jurkat lysate
T1 sequence (whole entry): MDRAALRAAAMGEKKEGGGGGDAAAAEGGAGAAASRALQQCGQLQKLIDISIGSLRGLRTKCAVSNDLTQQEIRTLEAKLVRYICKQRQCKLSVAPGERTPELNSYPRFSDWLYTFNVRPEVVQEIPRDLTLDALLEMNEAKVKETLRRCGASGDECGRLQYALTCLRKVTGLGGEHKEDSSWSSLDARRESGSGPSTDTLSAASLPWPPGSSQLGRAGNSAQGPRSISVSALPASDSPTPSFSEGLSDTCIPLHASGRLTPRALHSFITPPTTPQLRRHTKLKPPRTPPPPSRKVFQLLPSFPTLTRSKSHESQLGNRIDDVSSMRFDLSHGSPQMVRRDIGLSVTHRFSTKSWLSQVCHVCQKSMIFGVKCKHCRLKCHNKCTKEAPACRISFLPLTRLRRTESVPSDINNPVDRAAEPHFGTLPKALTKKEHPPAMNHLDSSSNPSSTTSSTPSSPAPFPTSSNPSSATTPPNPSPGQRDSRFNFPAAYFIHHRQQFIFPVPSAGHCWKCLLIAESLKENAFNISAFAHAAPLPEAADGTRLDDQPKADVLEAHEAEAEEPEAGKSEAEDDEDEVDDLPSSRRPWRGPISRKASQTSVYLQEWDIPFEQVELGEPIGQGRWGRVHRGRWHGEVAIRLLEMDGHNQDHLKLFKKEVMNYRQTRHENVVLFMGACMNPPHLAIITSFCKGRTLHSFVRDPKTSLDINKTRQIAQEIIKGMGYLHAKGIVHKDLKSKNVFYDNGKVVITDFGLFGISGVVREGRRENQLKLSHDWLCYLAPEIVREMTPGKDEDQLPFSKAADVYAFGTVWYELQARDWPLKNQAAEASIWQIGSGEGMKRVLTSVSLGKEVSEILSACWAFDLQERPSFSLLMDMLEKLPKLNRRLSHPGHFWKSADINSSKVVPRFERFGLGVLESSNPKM

[4] = biological target: PIK3R4 (UniProt Q99570); test: pIC50, kinobeads binding competition; conditions: cell material: Jurkat lysate
Chain of PIK3R4 (Q99570 whole entry): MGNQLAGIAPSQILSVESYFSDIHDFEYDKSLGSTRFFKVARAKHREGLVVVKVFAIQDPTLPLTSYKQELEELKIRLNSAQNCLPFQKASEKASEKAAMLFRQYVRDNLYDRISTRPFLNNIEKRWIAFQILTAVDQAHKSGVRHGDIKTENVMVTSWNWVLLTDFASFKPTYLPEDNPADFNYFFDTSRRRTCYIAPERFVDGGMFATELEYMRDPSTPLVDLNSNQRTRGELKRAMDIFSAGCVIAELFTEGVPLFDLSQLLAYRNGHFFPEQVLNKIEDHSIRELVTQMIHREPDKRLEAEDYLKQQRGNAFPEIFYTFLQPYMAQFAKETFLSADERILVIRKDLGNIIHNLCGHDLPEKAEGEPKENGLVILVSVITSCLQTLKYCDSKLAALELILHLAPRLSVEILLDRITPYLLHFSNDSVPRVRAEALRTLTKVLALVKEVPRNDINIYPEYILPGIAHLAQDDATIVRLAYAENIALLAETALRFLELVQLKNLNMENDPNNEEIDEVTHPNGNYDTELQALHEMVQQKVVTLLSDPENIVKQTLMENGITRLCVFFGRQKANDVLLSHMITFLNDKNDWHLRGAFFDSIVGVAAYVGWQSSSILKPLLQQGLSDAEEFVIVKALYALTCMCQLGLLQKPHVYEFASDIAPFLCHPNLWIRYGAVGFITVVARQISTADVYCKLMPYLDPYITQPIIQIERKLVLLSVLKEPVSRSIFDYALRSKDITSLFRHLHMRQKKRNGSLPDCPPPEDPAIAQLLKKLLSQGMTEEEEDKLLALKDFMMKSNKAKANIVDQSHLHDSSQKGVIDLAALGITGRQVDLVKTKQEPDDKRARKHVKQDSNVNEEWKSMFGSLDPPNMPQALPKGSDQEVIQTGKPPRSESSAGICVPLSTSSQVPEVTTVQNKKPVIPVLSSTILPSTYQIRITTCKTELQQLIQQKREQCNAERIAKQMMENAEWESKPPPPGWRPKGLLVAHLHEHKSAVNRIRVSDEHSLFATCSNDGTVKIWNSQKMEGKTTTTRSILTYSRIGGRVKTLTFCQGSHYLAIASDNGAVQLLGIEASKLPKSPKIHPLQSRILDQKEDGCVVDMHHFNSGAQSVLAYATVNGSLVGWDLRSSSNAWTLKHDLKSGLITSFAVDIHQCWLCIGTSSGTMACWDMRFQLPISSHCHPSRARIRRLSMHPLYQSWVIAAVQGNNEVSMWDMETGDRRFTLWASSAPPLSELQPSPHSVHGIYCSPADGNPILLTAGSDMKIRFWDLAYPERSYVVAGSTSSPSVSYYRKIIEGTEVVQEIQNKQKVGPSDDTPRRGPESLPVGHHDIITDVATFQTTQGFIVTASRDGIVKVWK

[5] = biological target: T2, PRKG2 (UniProt Q13237); test: pIC50, kinobeads binding competition; conditions: cell material: Jurkat lysate
T2 sequence (whole entry): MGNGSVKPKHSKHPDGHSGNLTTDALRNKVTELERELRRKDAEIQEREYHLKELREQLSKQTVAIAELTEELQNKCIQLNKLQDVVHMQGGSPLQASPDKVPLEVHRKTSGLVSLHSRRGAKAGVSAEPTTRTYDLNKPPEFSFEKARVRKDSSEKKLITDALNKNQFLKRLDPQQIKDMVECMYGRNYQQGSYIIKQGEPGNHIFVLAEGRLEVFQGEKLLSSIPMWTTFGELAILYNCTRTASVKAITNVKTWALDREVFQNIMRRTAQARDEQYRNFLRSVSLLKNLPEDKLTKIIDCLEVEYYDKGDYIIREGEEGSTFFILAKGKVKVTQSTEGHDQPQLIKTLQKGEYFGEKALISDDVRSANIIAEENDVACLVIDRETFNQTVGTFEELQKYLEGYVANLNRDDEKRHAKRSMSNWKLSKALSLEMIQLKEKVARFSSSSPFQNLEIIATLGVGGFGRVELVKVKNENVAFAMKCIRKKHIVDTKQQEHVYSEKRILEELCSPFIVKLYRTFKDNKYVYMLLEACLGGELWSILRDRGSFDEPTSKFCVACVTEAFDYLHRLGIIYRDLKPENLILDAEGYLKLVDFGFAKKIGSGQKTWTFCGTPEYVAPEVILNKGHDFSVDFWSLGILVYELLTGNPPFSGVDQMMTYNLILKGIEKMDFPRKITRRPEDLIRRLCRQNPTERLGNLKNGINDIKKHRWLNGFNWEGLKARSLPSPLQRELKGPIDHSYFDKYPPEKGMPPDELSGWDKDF

[6] = biological target: UniProt P17252; test: pIC50, kinobeads binding competition; conditions: cell material: Jurkat lysate
[7] = biological target: UniProt Q14289; test: pIC50, kinobeads binding competition; conditions: cell material: Jurkat lysate
Chain of UniProt Q14289 (Q14289 whole entry, looked up): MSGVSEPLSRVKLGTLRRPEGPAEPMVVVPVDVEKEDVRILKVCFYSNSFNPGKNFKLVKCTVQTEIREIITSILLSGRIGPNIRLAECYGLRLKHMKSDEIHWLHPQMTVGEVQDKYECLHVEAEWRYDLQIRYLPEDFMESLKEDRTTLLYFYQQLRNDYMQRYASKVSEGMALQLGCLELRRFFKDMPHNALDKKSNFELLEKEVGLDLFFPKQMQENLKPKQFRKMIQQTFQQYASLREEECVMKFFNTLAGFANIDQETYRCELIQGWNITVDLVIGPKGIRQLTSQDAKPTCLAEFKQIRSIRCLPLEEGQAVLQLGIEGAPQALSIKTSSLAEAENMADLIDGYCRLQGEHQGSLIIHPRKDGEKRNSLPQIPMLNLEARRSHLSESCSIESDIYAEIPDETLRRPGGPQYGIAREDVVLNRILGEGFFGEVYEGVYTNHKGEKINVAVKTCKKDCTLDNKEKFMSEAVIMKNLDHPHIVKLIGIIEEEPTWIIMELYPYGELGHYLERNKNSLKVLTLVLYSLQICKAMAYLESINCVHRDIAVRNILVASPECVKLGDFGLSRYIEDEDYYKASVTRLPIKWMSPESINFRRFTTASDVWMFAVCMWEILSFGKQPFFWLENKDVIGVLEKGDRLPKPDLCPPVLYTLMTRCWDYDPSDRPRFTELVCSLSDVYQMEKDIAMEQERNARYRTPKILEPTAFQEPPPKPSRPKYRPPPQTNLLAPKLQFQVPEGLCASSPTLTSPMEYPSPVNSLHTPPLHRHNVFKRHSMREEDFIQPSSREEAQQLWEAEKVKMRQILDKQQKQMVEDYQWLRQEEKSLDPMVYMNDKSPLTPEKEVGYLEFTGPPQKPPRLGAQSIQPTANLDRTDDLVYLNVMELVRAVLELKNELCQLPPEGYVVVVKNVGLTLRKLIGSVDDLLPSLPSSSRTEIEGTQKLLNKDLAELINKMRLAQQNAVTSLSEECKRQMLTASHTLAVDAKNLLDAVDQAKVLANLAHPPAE

[8] = biological target: UniProt Q5VT25; test: pIC50, kinobeads binding competition; conditions: cell material: Jurkat lysate
[9] = biological target: UniProt Q9BVS4; test: pIC50, kinobeads binding competition; conditions: cell material: Jurkat lysate
Chain of UniProt Q9BVS4 (Q9BVS4 whole entry, looked up): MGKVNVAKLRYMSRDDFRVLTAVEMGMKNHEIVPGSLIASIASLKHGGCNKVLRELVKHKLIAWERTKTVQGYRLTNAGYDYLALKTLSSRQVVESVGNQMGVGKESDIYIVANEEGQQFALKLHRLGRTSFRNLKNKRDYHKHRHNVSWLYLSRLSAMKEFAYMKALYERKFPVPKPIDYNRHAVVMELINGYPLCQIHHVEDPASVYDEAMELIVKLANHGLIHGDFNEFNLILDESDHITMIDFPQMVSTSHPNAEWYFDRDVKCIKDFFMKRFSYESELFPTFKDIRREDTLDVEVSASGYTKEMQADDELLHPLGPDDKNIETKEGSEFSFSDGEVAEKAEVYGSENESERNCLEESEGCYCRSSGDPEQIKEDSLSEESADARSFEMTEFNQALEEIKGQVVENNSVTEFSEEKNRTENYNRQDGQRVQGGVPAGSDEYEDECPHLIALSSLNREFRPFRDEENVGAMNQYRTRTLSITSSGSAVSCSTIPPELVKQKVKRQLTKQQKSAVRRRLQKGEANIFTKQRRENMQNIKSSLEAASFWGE

[10] = biological target: UniProt Q9NYL2; test: pIC50, kinobeads binding competition; conditions: cell material: Jurkat lysate
Chain of UniProt Q9NYL2 (Q9NYL2 whole entry, looked up): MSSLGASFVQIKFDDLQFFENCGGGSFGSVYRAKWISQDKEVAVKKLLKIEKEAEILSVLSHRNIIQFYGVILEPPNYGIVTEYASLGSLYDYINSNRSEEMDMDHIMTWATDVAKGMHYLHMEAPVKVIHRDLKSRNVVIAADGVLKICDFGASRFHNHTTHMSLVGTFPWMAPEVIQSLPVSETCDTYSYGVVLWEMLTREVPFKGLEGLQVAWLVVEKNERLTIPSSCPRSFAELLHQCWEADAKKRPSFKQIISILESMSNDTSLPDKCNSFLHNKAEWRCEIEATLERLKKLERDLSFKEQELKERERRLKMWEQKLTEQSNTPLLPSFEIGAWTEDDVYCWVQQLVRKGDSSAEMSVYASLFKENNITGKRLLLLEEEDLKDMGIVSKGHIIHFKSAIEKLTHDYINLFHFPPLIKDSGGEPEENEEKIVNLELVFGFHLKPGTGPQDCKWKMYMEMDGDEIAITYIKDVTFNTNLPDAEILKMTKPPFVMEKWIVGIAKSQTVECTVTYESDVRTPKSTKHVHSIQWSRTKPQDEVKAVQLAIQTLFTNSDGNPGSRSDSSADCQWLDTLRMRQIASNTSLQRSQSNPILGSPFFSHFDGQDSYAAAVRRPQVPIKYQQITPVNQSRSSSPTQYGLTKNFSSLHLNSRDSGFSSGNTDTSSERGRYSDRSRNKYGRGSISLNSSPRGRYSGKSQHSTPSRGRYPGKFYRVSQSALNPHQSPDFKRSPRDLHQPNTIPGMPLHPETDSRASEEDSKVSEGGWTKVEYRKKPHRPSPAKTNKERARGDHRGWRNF

[11] = biological target: T3, ZAP70 (UniProt P43403); test: pIC50, kinobeads binding competition; conditions: cell material: Jurkat lysate
T3 sequence (whole entry): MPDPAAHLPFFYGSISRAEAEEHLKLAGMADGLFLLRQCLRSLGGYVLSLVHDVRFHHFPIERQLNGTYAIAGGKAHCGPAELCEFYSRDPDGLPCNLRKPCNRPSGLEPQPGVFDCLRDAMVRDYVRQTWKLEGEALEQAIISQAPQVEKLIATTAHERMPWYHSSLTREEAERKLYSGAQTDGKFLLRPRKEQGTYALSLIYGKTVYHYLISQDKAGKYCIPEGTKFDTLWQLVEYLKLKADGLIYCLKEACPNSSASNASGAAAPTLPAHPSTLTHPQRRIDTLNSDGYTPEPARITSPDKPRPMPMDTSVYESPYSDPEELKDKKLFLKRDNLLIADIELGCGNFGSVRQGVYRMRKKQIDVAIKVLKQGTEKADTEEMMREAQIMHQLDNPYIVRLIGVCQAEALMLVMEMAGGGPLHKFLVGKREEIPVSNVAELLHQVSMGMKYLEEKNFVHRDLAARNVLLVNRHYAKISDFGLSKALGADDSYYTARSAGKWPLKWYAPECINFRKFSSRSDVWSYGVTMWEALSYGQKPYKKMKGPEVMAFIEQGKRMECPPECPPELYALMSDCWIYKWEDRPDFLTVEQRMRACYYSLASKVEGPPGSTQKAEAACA

[12] = biological target: ABCC1 (UniProt P33527); test: pIC50, competition of probe 3 labelling in live cells; conditions: cell material: Jurkat cells
[13] = biological target: CAMKK2 (UniProt Q96RR4); test: as above; conditions: cell material: Jurkat cells
Chain of CAMKK2 (Q96RR4 whole entry, looked up): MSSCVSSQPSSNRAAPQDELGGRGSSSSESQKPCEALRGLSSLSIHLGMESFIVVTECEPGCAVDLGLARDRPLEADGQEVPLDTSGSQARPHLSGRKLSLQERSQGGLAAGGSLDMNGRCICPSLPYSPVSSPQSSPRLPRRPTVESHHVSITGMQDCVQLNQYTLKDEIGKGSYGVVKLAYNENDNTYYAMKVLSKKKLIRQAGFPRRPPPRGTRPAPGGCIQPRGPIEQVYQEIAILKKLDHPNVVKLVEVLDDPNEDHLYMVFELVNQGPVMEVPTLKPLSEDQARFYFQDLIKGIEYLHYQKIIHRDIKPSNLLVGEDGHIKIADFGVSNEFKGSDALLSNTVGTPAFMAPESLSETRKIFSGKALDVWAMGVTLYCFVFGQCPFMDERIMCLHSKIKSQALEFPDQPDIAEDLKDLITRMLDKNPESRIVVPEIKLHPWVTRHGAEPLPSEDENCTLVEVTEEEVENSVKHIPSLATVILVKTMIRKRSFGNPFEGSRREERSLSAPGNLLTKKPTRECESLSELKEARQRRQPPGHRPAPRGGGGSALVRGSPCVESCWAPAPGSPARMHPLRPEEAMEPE

[14] = biological target: MAST3 (UniProt O60307); test: as above; conditions: cell material: Jurkat cells
[15] = biological target: PXMP2 (UniProt Q9NR77); test: as above; conditions: cell material: Jurkat cells
Chain of PXMP2 (Q9NR77 whole entry): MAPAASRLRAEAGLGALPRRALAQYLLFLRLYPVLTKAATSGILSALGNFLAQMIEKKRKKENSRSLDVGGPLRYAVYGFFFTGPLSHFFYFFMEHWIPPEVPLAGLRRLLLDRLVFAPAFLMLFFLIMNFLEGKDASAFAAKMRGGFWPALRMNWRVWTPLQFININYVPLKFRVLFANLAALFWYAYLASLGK

[16] = biological target: UniProt P28482; test: as above; conditions: cell material: Jurkat cells
Chain of UniProt P28482 (P28482 whole entry): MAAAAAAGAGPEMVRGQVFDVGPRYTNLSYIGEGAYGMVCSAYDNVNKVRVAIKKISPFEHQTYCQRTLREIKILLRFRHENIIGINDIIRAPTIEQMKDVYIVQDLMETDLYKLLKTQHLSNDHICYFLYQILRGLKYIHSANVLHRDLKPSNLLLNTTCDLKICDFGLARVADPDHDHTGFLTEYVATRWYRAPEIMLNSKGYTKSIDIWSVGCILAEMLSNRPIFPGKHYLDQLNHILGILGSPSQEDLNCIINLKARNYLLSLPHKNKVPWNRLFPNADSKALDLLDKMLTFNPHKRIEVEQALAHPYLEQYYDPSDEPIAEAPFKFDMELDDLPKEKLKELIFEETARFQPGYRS

pIC50 [1]: < 4.52
pIC50 [2]: < 4.52
pIC50 [3]: < 4.52
pIC50 [4]: < 4.52
pIC50 [5]: < 4.52
pIC50 [6]: < 4.52
pIC50 [7]: < 4.52
pIC50 [8]: < 4.52
pIC50 [9]: < 4.52
pIC50 [10]: < 4.52
pIC50 [11]: < 4.52
pIC50 [12]: < 4.52
pIC50 [13]: < 4.52
pIC50 [14]: < 4.52
pIC50 [15]: < 4.52
pIC50 [16]: < 4.52
SMILES: CCc1cnn2c(NCc3ccc[n+]([O-])c3)cc(N3CCCC[C@H]3CCO)nc12 [dinaciclib]
